How the values were obtained:
3T3-L1 preadipocytes = assay: Inhibition of differentiation of 3T3-L1 preadipocyte to adipocyte (oil red O staining); format: cell-based, mouse; conditions: 3T3-L1 cell line, concentration of 2 μM
Description: To investigate inhibition effect on adipocyte differentiation in 3T3-L1 preadipocytes, mouse embryo fibroblasts were cultured in DMEM supplemented with 10% FBS to confluency. Two days later (Day 0), the cells were stimulated for the differentiation in DMEM, the differentiation medium supplemented with 10% FBS, 0.5 mM 3-isobutyl-1-methyl-xanthine, […], and […] (Day 2). For the next 6 days, the cells were cultured in DMEM supplemented with 10% FBS and 2 mM insulin (Day 8), followed by further culture in DMEM supplemented with 10% FBS for […] (Day 8). Every medium was added with 100 IU/ml of penicillin and […] of streptomycin. The cells were cultured in the presence of 95% air and 5% CO2. During the whole culture period (Day 0˜Day 8), the treatment of the rotenoisin A and B (2, 0.2, 0.02 uM) of the present invention was performed by the conventional method known to those in the art (Liu, Q.; Shin, E.; Ahn, M. J.; Hwang, B. Y.; Lee, M. K. Nat. Prod. Sci. 2011, 17, 212.) with slight modification. […]
Particularly, intracellular fat lump was stained with oil red O. 8 days after the induction of cell differentiation, the cells were washed with […] twice, followed by fixing in 10% formalin for 1 hour at room temperature. […] For quantitative analysis, oil red O was dissolved with isopropyl alcohol, followed by measuring OD500 using an ELISA reader.

pig pancreatic lipase = pig pancreatic lipase (Sus scrofa (Pig), UniProt P00591); assay: Pancreatic lipase inhibiting activity (p-nitrophenylbutyrate hydrolysis); format: biochemical
Chain of pig pancreatic lipase (P00591 whole entry): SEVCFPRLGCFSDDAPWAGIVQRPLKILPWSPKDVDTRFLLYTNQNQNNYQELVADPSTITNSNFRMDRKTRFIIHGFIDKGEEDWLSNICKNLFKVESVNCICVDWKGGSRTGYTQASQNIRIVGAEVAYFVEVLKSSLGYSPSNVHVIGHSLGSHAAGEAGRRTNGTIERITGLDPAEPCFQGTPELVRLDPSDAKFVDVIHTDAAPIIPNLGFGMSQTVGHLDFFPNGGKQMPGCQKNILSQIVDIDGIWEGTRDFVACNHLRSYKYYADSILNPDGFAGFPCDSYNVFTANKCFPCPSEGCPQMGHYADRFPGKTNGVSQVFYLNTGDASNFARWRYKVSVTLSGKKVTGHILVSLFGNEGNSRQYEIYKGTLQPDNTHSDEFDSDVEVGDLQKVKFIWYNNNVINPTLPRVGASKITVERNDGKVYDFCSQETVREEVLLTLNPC
Description: To investigate obesity treating effect of the novel rotenoisin A and B, each represented by formula 2 and formula 3 isolated and purified in <Example 2>, pancreatic lipase inhibiting activity of the same was measured.
Particularly, pancreatic lipase inhibiting activity was measured by the conventional method known to those in the art (Kim, J. H.; Kim, H. J.; Park, H. W.; Youn, S. H.; Choi, D. Y.; Shin, C. S. FEMS Microbiol. Lett. 2007, 276, 93.). To prepare the enzyme buffer, […] (10 units) of pig pancreatic lipase solution (Sigma, St. Louis, Mo.) and 1 mM EDTA (pH 6.8) were mixed with 10 mM MOPS (morpholinepropanesulphonic acid), which was added to […] of tris buffer (100 mM Tris-HCl and 5 mM CaCl2, pH 7.0). Then, […] of the rotenoisin A or B of the present invention was mixed with the prepared enzyme buffer at the experimental concentration. […] 20 mL of substrate solution containing 20 mM p-nitrophenylbutyrate dissolved in dimethyl formaide was added to the enzyme buffer, followed by culture for 15 minutes at 37° C. that was the temperature adequate for enzyme reaction. Pancreatic lipase activity was measured by measuring the hydrolysis of p-nitrophenylbutyrate into p-nitrophenol using an ELISA reader (Infinite F200; Tecan Austria GmBH, Grodig, Austria).

What does the source list for `C=C(C)[C@H]1Cc2c(ccc3c2O[C@@H]2COc4cc(OC)c(OC)cc4[C@@H]2C32CO2)O1` (some centres unmarked) [rotenoisin A]?
adipocyte differentiation inhibiting activity (3T3-L1 preadipocytes; Day 8): approximately 70%; inhibition at 2 µM (3T3-L1 preadipocytes; Mus musculus, 192 h, Day 8, read-out: adipocyte differentiation inhibiting activity): ~70%; IC50 (pig pancreatic lipase): 6.3 ± 0.3 µM

`C=C(C)[C@H]1Cc2c(ccc3c2O[C@@H]2COc4cc(OC)c(OC)cc4[C@@H]2C3=O)O1` [rotenone] was tested. Which IC50 (pig pancreatic lipase) did it give?
Its IC50 is over 500 µM.

`C=C(C)[C@H]1Cc2c(ccc3c2O[C@@H]2COc4cc(OC)c(OC)cc4[C@@H]2[C@]32CC3O[C@]3(O)[C@@H](O)O2)O1` (some centres unmarked) [rotenoisin B] was tested. Which IC50 (pig pancreatic lipase) did it give?
The IC50 was 28.4 ± 1.2 µM.
